test system: BT-474; assay: normalised response (% of control), CellTox Green; higher = less cell death (100 = DMSO, 0 = benzethonium chloride kill control); conditions: incubation time: 72 h
In short: (§1)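 Each entry is the normalised signal at a single concentration within a series. The series comprised 5 concentrations in 10-fold steps over a compound-specific 10,000-fold range, placed in 384-well plates into which breast cancer cell lines were seeded as 20 µl suspension and incubated 72 h. CellTox Green (485/520 nm) fluorescence and then CellTiter-Glo luminescence were read, with signals normalised per plate to 0.1 % DMSO (100) and a positive kill control (0).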

SMILES	normalised response
CC(C)(C)c1cc(NC(=O)Nc2ccc(-c3cn4c(n3)sc3cc(OCCN5CCOCC5)ccc34)cc2)no1 [Quizartinib] (10 nM)	97.6%
CN(c1ccccc1CNc1nc(Nc2ccc3c(c2)CC(=O)N3)ncc1C(F)(F)F)S(C)(=O)=O (100 nM)	94.5%
Nc1nccc(-c2c(-c3ccc(F)cc3)ncn2C2CCCCC2)n1 (100 nM)	103%
COC1=C2C[C@@H](C)C[C@H](OC)[C@H](O)[C@@H](C)/C=C(\C)[C@H](OC(N)=O)[C@@H](OC)/C=C\C=C(/C)C(=O)NC(=CC1=O)C2=O [Geldanamycin] (100 nM)	100%
Cn1c(=O)c(F)c(Nc2ccc(I)cc2F)c2c(=O)n(C[C@@H](O)CO)cnc21 [TAK-733] (10 nM)	103%
CS(=O)(=O)CCNCc1ccc(-c2ccc3ncnc(Nc4ccc(OCc5cccc(F)c5)c(Cl)c4)c3c2)o1 [Lapatinib] (10 nM)	97.8%
Cc1cc(C(C)Nc2ccccc2)c2nc(N3CCOCC3)cc(=O)n2c1 (centres undefined) [TGX-221] (100 nM)	89.3%
CCS(=O)(=O)c1cccc(-c2cc(C(=O)NC3CCN(C)CC3)c(C)c3[nH]c4ncc(C)cc4c23)c1 [TAK-901] (10 nM)	100%
O=c1[nH]c(=O)n([C@H]2C[C@H](O)[C@@H](CO)O2)cc1F [Floxuridine] (100 nM)	102%

test system: BT-549; assay: as above; conditions: incubation time: 72 h
In short: as §1

SMILES	normalised response
CC(C)(C)c1cc(NC(=O)Nc2ccc(-c3cn4c(n3)sc3cc(OCCN5CCOCC5)ccc34)cc2)no1 [Quizartinib] (10 nM)	104%
CN(c1ccccc1CNc1nc(Nc2ccc3c(c2)CC(=O)N3)ncc1C(F)(F)F)S(C)(=O)=O (100 nM)	97.5%
Nc1nccc(-c2c(-c3ccc(F)cc3)ncn2C2CCCCC2)n1 (100 nM)	93.9%
COC1=C2C[C@@H](C)C[C@H](OC)[C@H](O)[C@@H](C)/C=C(\C)[C@H](OC(N)=O)[C@@H](OC)/C=C\C=C(/C)C(=O)NC(=CC1=O)C2=O [Geldanamycin] (100 nM)	99.4%
Cn1c(=O)c(F)c(Nc2ccc(I)cc2F)c2c(=O)n(C[C@@H](O)CO)cnc21 [TAK-733] (10 nM)	105%
CS(=O)(=O)CCNCc1ccc(-c2ccc3ncnc(Nc4ccc(OCc5cccc(F)c5)c(Cl)c4)c3c2)o1 [Lapatinib] (10 nM)	91.8%
Cc1cc(C(C)Nc2ccccc2)c2nc(N3CCOCC3)cc(=O)n2c1 (centres undefined) [TGX-221] (100 nM)	92.5%
CCS(=O)(=O)c1cccc(-c2cc(C(=O)NC3CCN(C)CC3)c(C)c3[nH]c4ncc(C)cc4c23)c1 [TAK-901] (10 nM)	72.2%
O=c1[nH]c(=O)n([C@H]2C[C@H](O)[C@@H](CO)O2)cc1F [Floxuridine] (100 nM)	114%

test system: CAL-120; assay: as above; conditions: incubation time: 72 h
In short: as §1

SMILES	normalised response
CC(C)(C)c1cc(NC(=O)Nc2ccc(-c3cn4c(n3)sc3cc(OCCN5CCOCC5)ccc34)cc2)no1 [Quizartinib] (10 nM)	94.6%
CN(c1ccccc1CNc1nc(Nc2ccc3c(c2)CC(=O)N3)ncc1C(F)(F)F)S(C)(=O)=O (100 nM)	99.9%
Nc1nccc(-c2c(-c3ccc(F)cc3)ncn2C2CCCCC2)n1 (100 nM)	102%
COC1=C2C[C@@H](C)C[C@H](OC)[C@H](O)[C@@H](C)/C=C(\C)[C@H](OC(N)=O)[C@@H](OC)/C=C\C=C(/C)C(=O)NC(=CC1=O)C2=O [Geldanamycin] (100 nM)	99.7%
Cn1c(=O)c(F)c(Nc2ccc(I)cc2F)c2c(=O)n(C[C@@H](O)CO)cnc21 [TAK-733] (10 nM)	103%
CS(=O)(=O)CCNCc1ccc(-c2ccc3ncnc(Nc4ccc(OCc5cccc(F)c5)c(Cl)c4)c3c2)o1 [Lapatinib] (10 nM)	101%
Cc1cc(C(C)Nc2ccccc2)c2nc(N3CCOCC3)cc(=O)n2c1 (centres undefined) [TGX-221] (100 nM)	105%
CCS(=O)(=O)c1cccc(-c2cc(C(=O)NC3CCN(C)CC3)c(C)c3[nH]c4ncc(C)cc4c23)c1 [TAK-901] (10 nM)	103%
O=c1[nH]c(=O)n([C@H]2C[C@H](O)[C@@H](CO)O2)cc1F [Floxuridine] (100 nM)	107%

test system: CAL-148; assay: as above; conditions: incubation time: 72 h
In short: as §1

SMILES	normalised response
CC(C)(C)c1cc(NC(=O)Nc2ccc(-c3cn4c(n3)sc3cc(OCCN5CCOCC5)ccc34)cc2)no1 [Quizartinib] (10 nM)	108%
CN(c1ccccc1CNc1nc(Nc2ccc3c(c2)CC(=O)N3)ncc1C(F)(F)F)S(C)(=O)=O (100 nM)	99.2%
Nc1nccc(-c2c(-c3ccc(F)cc3)ncn2C2CCCCC2)n1 (100 nM)	101%
COC1=C2C[C@@H](C)C[C@H](OC)[C@H](O)[C@@H](C)/C=C(\C)[C@H](OC(N)=O)[C@@H](OC)/C=C\C=C(/C)C(=O)NC(=CC1=O)C2=O [Geldanamycin] (100 nM)	106%
Cn1c(=O)c(F)c(Nc2ccc(I)cc2F)c2c(=O)n(C[C@@H](O)CO)cnc21 [TAK-733] (10 nM)	107%
Cc1cc(C(C)Nc2ccccc2)c2nc(N3CCOCC3)cc(=O)n2c1 (centres undefined) [TGX-221] (100 nM)	81%
CCS(=O)(=O)c1cccc(-c2cc(C(=O)NC3CCN(C)CC3)c(C)c3[nH]c4ncc(C)cc4c23)c1 [TAK-901] (10 nM)	105%

test system: CAL-51; assay: as above; conditions: incubation time: 72 h
In short: as §1

SMILES	normalised response
CC(C)(C)c1cc(NC(=O)Nc2ccc(-c3cn4c(n3)sc3cc(OCCN5CCOCC5)ccc34)cc2)no1 [Quizartinib] (10 nM)	89.8%
CN(c1ccccc1CNc1nc(Nc2ccc3c(c2)CC(=O)N3)ncc1C(F)(F)F)S(C)(=O)=O (100 nM)	87.6%
Nc1nccc(-c2c(-c3ccc(F)cc3)ncn2C2CCCCC2)n1 (100 nM)	94.3%
COC1=C2C[C@@H](C)C[C@H](OC)[C@H](O)[C@@H](C)/C=C(\C)[C@H](OC(N)=O)[C@@H](OC)/C=C\C=C(/C)C(=O)NC(=CC1=O)C2=O [Geldanamycin] (100 nM)	96%
Cn1c(=O)c(F)c(Nc2ccc(I)cc2F)c2c(=O)n(C[C@@H](O)CO)cnc21 [TAK-733] (10 nM)	104%
CS(=O)(=O)CCNCc1ccc(-c2ccc3ncnc(Nc4ccc(OCc5cccc(F)c5)c(Cl)c4)c3c2)o1 [Lapatinib] (10 nM)	99.4%
Cc1cc(C(C)Nc2ccccc2)c2nc(N3CCOCC3)cc(=O)n2c1 (centres undefined) [TGX-221] (100 nM)	90.6%
CCS(=O)(=O)c1cccc(-c2cc(C(=O)NC3CCN(C)CC3)c(C)c3[nH]c4ncc(C)cc4c23)c1 [TAK-901] (10 nM)	98.6%
O=c1[nH]c(=O)n([C@H]2C[C@H](O)[C@@H](CO)O2)cc1F [Floxuridine] (100 nM)	95.6%

test system: CAL-85-1; assay: as above; conditions: incubation time: 72 h
In short: as §1

SMILES	normalised response
CC(C)(C)c1cc(NC(=O)Nc2ccc(-c3cn4c(n3)sc3cc(OCCN5CCOCC5)ccc34)cc2)no1 [Quizartinib] (10 nM)	107%
CN(c1ccccc1CNc1nc(Nc2ccc3c(c2)CC(=O)N3)ncc1C(F)(F)F)S(C)(=O)=O (100 nM)	102%
Nc1nccc(-c2c(-c3ccc(F)cc3)ncn2C2CCCCC2)n1 (100 nM)	97.7%
COC1=C2C[C@@H](C)C[C@H](OC)[C@H](O)[C@@H](C)/C=C(\C)[C@H](OC(N)=O)[C@@H](OC)/C=C\C=C(/C)C(=O)NC(=CC1=O)C2=O [Geldanamycin] (100 nM)	96.5%
Cn1c(=O)c(F)c(Nc2ccc(I)cc2F)c2c(=O)n(C[C@@H](O)CO)cnc21 [TAK-733] (10 nM)	104%
CS(=O)(=O)CCNCc1ccc(-c2ccc3ncnc(Nc4ccc(OCc5cccc(F)c5)c(Cl)c4)c3c2)o1 [Lapatinib] (10 nM)	87.4%
Cc1cc(C(C)Nc2ccccc2)c2nc(N3CCOCC3)cc(=O)n2c1 (centres undefined) [TGX-221] (100 nM)	114%
CCS(=O)(=O)c1cccc(-c2cc(C(=O)NC3CCN(C)CC3)c(C)c3[nH]c4ncc(C)cc4c23)c1 [TAK-901] (10 nM)	95.7%
O=c1[nH]c(=O)n([C@H]2C[C@H](O)[C@@H](CO)O2)cc1F [Floxuridine] (100 nM)	87.3%

test system: DU-4475; assay: as above; conditions: incubation time: 72 h
In short: as §1

SMILES	normalised response
CC(C)(C)c1cc(NC(=O)Nc2ccc(-c3cn4c(n3)sc3cc(OCCN5CCOCC5)ccc34)cc2)no1 [Quizartinib] (10 nM)	99.3%
CN(c1ccccc1CNc1nc(Nc2ccc3c(c2)CC(=O)N3)ncc1C(F)(F)F)S(C)(=O)=O (100 nM)	98.1%
Nc1nccc(-c2c(-c3ccc(F)cc3)ncn2C2CCCCC2)n1 (100 nM)	107%
COC1=C2C[C@@H](C)C[C@H](OC)[C@H](O)[C@@H](C)/C=C(\C)[C@H](OC(N)=O)[C@@H](OC)/C=C\C=C(/C)C(=O)NC(=CC1=O)C2=O [Geldanamycin] (100 nM)	104%
Cn1c(=O)c(F)c(Nc2ccc(I)cc2F)c2c(=O)n(C[C@@H](O)CO)cnc21 [TAK-733] (10 nM)	95.9%
CS(=O)(=O)CCNCc1ccc(-c2ccc3ncnc(Nc4ccc(OCc5cccc(F)c5)c(Cl)c4)c3c2)o1 [Lapatinib] (10 nM)	101%
Cc1cc(C(C)Nc2ccccc2)c2nc(N3CCOCC3)cc(=O)n2c1 (centres undefined) [TGX-221] (100 nM)	99.1%
CCS(=O)(=O)c1cccc(-c2cc(C(=O)NC3CCN(C)CC3)c(C)c3[nH]c4ncc(C)cc4c23)c1 [TAK-901] (10 nM)	101%
O=c1[nH]c(=O)n([C@H]2C[C@H](O)[C@@H](CO)O2)cc1F [Floxuridine] (100 nM)	107%

test system: HCC1143; assay: as above; conditions: incubation time: 72 h
In short: as §1

SMILES	normalised response
CC(C)(C)c1cc(NC(=O)Nc2ccc(-c3cn4c(n3)sc3cc(OCCN5CCOCC5)ccc34)cc2)no1 [Quizartinib] (10 nM)	125%
CN(c1ccccc1CNc1nc(Nc2ccc3c(c2)CC(=O)N3)ncc1C(F)(F)F)S(C)(=O)=O (100 nM)	84.4%
Nc1nccc(-c2c(-c3ccc(F)cc3)ncn2C2CCCCC2)n1 (100 nM)	100%
COC1=C2C[C@@H](C)C[C@H](OC)[C@H](O)[C@@H](C)/C=C(\C)[C@H](OC(N)=O)[C@@H](OC)/C=C\C=C(/C)C(=O)NC(=CC1=O)C2=O [Geldanamycin] (100 nM)	76.5%
Cn1c(=O)c(F)c(Nc2ccc(I)cc2F)c2c(=O)n(C[C@@H](O)CO)cnc21 [TAK-733] (10 nM)	118%
CS(=O)(=O)CCNCc1ccc(-c2ccc3ncnc(Nc4ccc(OCc5cccc(F)c5)c(Cl)c4)c3c2)o1 [Lapatinib] (10 nM)	109%
Cc1cc(C(C)Nc2ccccc2)c2nc(N3CCOCC3)cc(=O)n2c1 (centres undefined) [TGX-221] (100 nM)	74.4%
CCS(=O)(=O)c1cccc(-c2cc(C(=O)NC3CCN(C)CC3)c(C)c3[nH]c4ncc(C)cc4c23)c1 [TAK-901] (10 nM)	69%
O=c1[nH]c(=O)n([C@H]2C[C@H](O)[C@@H](CO)O2)cc1F [Floxuridine] (100 nM)	63.4%

test system: HCC1599; assay: as above; conditions: incubation time: 72 h
In short: as §1

SMILES	normalised response
CC(C)(C)c1cc(NC(=O)Nc2ccc(-c3cn4c(n3)sc3cc(OCCN5CCOCC5)ccc34)cc2)no1 [Quizartinib] (10 nM)	117%
CN(c1ccccc1CNc1nc(Nc2ccc3c(c2)CC(=O)N3)ncc1C(F)(F)F)S(C)(=O)=O (100 nM)	94%
Nc1nccc(-c2c(-c3ccc(F)cc3)ncn2C2CCCCC2)n1 (100 nM)	98.9%
COC1=C2C[C@@H](C)C[C@H](OC)[C@H](O)[C@@H](C)/C=C(\C)[C@H](OC(N)=O)[C@@H](OC)/C=C\C=C(/C)C(=O)NC(=CC1=O)C2=O [Geldanamycin] (100 nM)	106%
Cn1c(=O)c(F)c(Nc2ccc(I)cc2F)c2c(=O)n(C[C@@H](O)CO)cnc21 [TAK-733] (10 nM)	119%
CS(=O)(=O)CCNCc1ccc(-c2ccc3ncnc(Nc4ccc(OCc5cccc(F)c5)c(Cl)c4)c3c2)o1 [Lapatinib] (10 nM)	103%
Cc1cc(C(C)Nc2ccccc2)c2nc(N3CCOCC3)cc(=O)n2c1 (centres undefined) [TGX-221] (100 nM)	95.3%
CCS(=O)(=O)c1cccc(-c2cc(C(=O)NC3CCN(C)CC3)c(C)c3[nH]c4ncc(C)cc4c23)c1 [TAK-901] (10 nM)	104%
O=c1[nH]c(=O)n([C@H]2C[C@H](O)[C@@H](CO)O2)cc1F [Floxuridine] (100 nM)	113%

Reference: the supplement of paper PMC4862054
